In experiment [1] the test system is phenylbenzoquinone (PBQ)-induced writhing in mice. Briefly: Writhing Assay (PBQ-induced writhing in mice, analgesic activity). In kind it is in vivo, mouse (Charles River male albino mice). Conditions: i.g.; for Writhing assay: number of mice out of eight or ten in which test compound produced analgesia: 30 mpk, 30 min before PBQ i.p., fraction of mice. The source says: The Writhing Assay is one of the most widely-used experimental procedures for measuring the analgesic activity of different narcotic and nonnarcotic analgesic agents, and involves the continuous, chemically-induced pain of visceral origin to an animal, such as a mouse or rat. [Gyires et al., Arch. int. Pharmacodyn, 267, 131-140 (1984); C. Vander Wende et al., Fed. Proc., 15, 494 (1956); Koster et al., Fed. Proc., 18, 412 (1959); and Witken et al., J. Pharmacol. exp. Ther., 133, 400-408 (1961).] Chemicals which may be used to induce this pain include phenylbenzoquinone (PBQ) and acetic acid. As a result of the chemical irritation to the animal, a characteristic stretching and writhing of the animal (dorsiflexion of the animal's back, extension of its hindlimbs and the strong contraction of its abdominal musculature) will generally occur. […] Drugs which reduce the number of writhes of the animal appear to restore the normal nociceptive threshold of the animal.
Charles River male albino mice, weighing 20 to 30 grams, were used in this assay.
Thirty minutes after intragastric administration to ten mice of 30 mg per kilogram of body weight of a compound of the present invention ("test compound"), […] per 10 g of body weight of a 0.025% w/v solution of PBQ was injected intraperitoneally into each mouse. Ten mice which were given saline in place of a test compound of the invention were used as a control group.
Five minutes later, each mouse was individually placed into a glass beaker for observation, and the number of writhes occurring during the following ten-minute period was counted.
A test compound was considered to have produced analgesia in a mouse if, in accordance with the conditions set forth above, and under the test criteria employed for this assay, after the administration of 30 mg per kilogram of body weight of a compound of the present invention to the mouse, the number of writhes elicited by a mouse injected with PBQ was equal to, or less than, one-half the median number of writhes recorded for the saline-treated control group of mice that day, as described by Taber in "Predictive Value of Analgesic Assays in Mice and Rats," Advances in Biochemical Psychopharmacology, 8, 191 (1974).
The results for the particular compounds of the present invention analyzed in this assay, and discussed in the examples identified below which correspond thereto, are presented in Table 1 hereinbelow as fractions under the heading "WRITHING ASSAY." The fractions indicate the number of mice out of eight or ten in which a test compound produced analgesia.
The standard initial screening dose of a test compound employed in this assay was 30 mpk […]. Generally, if this initial screening dose of the test compound produced analgesia in seven out of ten mice, then the effect of additional doses of the test compound on the writhing response was evaluated, and then the ED50 dose was generally calculated. (The slopes of the dose-response curves for all test compounds analyzed were compared as described by Tallarida and Murray, Manual of Pharmacologic Calculations, Page 11 (Springer Verlag, New York, 1981)).
All ED50 doses calculated are also presented in Table 1 hereinbelow under the heading "WRITHING ASSAY," but as whole numbers.

The subject of experiment [2] is prostaglandin E2-induced contractions of guinea pig ileum. Briefly: Prostaglandin (PGE) Antagonism Assay (inhibition of prostaglandin E2-induced contractions of segments of guinea pig ileum). The settings on record: test compound 3 × 10^-6 M, 30 min incubation; dose ratio of PGE2 EC50 values; average where more than one determined. The method, then:
(b) Prostaglandin (PGE) Antagonism Assay
In order to determine the effectiveness of several of the compounds of the present invention ("test compounds") as prostaglandin E2 antagonists,a prostaglandin antagonism assay was conducted, as described below, to determine the ability of these compounds to inhibit prostaglandin E2 -induced contractions of segments of guinea pig ileum.
Male albino guinea pigs weighing 200 to 500 grams were sacrificed by cervical dislocation. The ilea were then quickly removed from the guinea pigs and placed in a modified Tyrode solution, a solution which is known to those skilled in the art, containing one-half of the usual amount of magnesium ions.
Segments of ileum about 2 cm long were then cut and mounted in a 10 mL tissue bath containing the modified Tyrode solution. The solution was maintained at 37° C. and aerated with a gaseous mixture of 95% oxygen and 5% carbon dioxide. Data for a control prostaglandin E2 dose response curve plotting concentration of prostaglandin E2 versus the intensity of contractions, detected isotonically, was then obtained by experimentally adjusting the dose of the prostaglandin E2 being injected into the tissue bath, in a manner known by those of skill in the art.
Solutions or suspensions containing an initial concentration (3 micromolar) of a test compound in modified Tyrode solution ("test solutions/suspensions") were then separately substituted for the control bath solution. Each test solution/suspension was then kept in constant contact with the ileum tissue, except for brief periods to drain the bath in preparation for rinsing with fresh test solution/suspension. A second prostaglandin E2 dose response curve was then generated for prostaglandin E2 in the presence of a test compound.
A control dose response curve is produced in isolated segments of guinea pig ileum mounted in an automated apparatus with six concentrations of prostaglandin E2. A solution or suspension of test compound is substituted for the control bathing solution and is incubated for thirty minutes. An additional prostaglandin E2 dose response curve is then performed in the presence of the test compound. A dose ratio is calculated from the EC50 values obtained from duplicate replications on each concentration of the test compound.
A dose ratio of EC50 doses was calculated from the results of each test in a manner known by those of skill in the art, and described above.
The dose ratios reported in Table 1 represent an average of multiple dose ratios for those compounds for which more than one dose ratio was determined. The compounds of the present invention which were tested in this assay, and for which results are presented in Table 1, correspond to the particular examples specified in Table 1.
The pA2 value (a statistical constant which is a common measure of expressing the potency of a particular drug as a competitive antagonist), rather than the dose ratio, was calculated for the test compound shown and described in Example 6 by schild plot calculations, as described by H. O. Schild, "pA, A New Scale for the Measurement of Drug Antagonism," Br. J. Pharmacol, 2, 189 (1947), and is reported in Table 1.

`O=C1OC(c2ccncc2)c2c(Cl)ccc3c2N1Cc1ccccc1O3` (stereo not drawn) [Compound 5, 4-chloro-3-(4-pyridyl)-1H,3H,12H-[3,1]-benzoxazino-[8,1-b,c][1,4]benzoxazepin-1-one]: in experiment [1], the “Writhing assay: number of mice out of eight or ten in which test compound produced analgesia” value (“Writhing assay: number” below) is 10/10. Also, in experiment [1] (Mus musculus, PBQ i.p., read-out: Writhing assay: ED50 Dose (I.G.)), the ED50 was determined as 3.7 mg/kg. The “PGE2 antagonism in guinea pig ileum: Dose Ratio at 3 × 10^-6 M” value (from here on “PGE2 antagonism … Dose Ratio at 3 × 10^-6 M”) in experiment [2] was determined as 10.93.

On to `O=C1OC(c2ccncc2)c2c(Cl)ccc3c2N1Cc1ccccc1O3` (single isomer, unassigned; (-)) [Compound 5b, (-)-4-chloro-3-(4-pyridyl)-1H,3H,12H-[3,1]-benzoxazino[8,1-b,c][1, 4]benzoxazepin-1-one], for which the “Writhing assay: number” value in experiment [1] (30 mg/kg) was 4/10. In experiment [2], the “PGE2 antagonism … Dose Ratio at 3 × 10^-6 M” value is 80.5.

On to `O=C1O[C@@H](c2ccccn2)[C@@H]2c3ccccc3Oc3ccc(Cl)cc3N12` (relative stereo) [Compound 11, cis-6-chloro-1,13b-dihydro-1-(2-pyridyl)-3H-dibenz[b,f]oxazolo[3,4-d][1,4]-oxazepin-3-one], for which the “Writhing assay: number” value in experiment [1] is 2/8. For the same molecule, in experiment [2], the “PGE2 antagonism … Dose Ratio at 3 × 10^-6 M” value was found to be 8.6.

Take `O=C1O[C@@H](c2ccncc2)[C@H]2c3ccccc3Oc3ccc(Cl)cc3N12` (relative stereo) [Compound 7, cis-6-chloro-1,13b-dihydro-1-(4-pyridyl)-3H-dibenz[b,f]oxazolo-[3,4-d][1,4]oxazepin-3-one]: the “Writhing assay: number” value in experiment [1] was 9/10. The “PGE2 antagonism … Dose Ratio at 3 × 10^-6 M” value in experiment [2] was found to be 1.5.

`O=C1OC(c2ccccc2)c2c(Cl)ccc3c2N1Cc1ccccc1O3` (stereo not drawn) [Compound 2, 4-chloro-3-phenyl-1H,3H,12H-[3,1]-benzoxazino[8,1-b,c][1,4]benzoxazepin-1-one]: the “Writhing assay: number” value in experiment [1] is 1/10. In experiment [2], the “PGE2 antagonism … Dose Ratio at 3 × 10^-6 M” value turned out to be 29.2.

Regarding `O=C1OC(c2ccccc2)C2c3ccccc3Oc3ccc(Cl)cc3N12` (single isomer, unassigned) [Compound 4, 6-chloro-1,13b-dihydro-1-phenyl-3H-dibenz[b,f]oxazolo-[3,4-d][1,4]oxazepin-3-one], in experiment [1], the “Writhing assay: number” value is listed as 3/10. Also, the “PGE2 antagonism … Dose Ratio at 3 × 10^-6 M” value in experiment [2] is 0.87.

Consider `O=C1OC(c2ccccc2)C2c3ccccc3Oc3ccc(Cl)cc3N12` (single isomer, unassigned) [Compound 3, 6-chloro-1,13b-dihydro-1-phenyl-3H-dibenz[b,f]oxazolo-[3,4-d][1,4]oxazepin-3-one], for which, in experiment [1], the “Writhing assay: number” value is 3/10. Besides, the “PGE2 antagonism … Dose Ratio at 3 × 10^-6 M” value in experiment [2] worked out at 43.6.
